In ChEMBL document CHEMBL4000153, “Bioactive Sesquiterpenoid and Polyacetylene Glycosides from Atractylodes lancea” (J Nat Prod, 2016):

Experiments:
BV-2 = experiment: Antiinflammatory activity in mouse BV2 cells assessed as inhibition of LPS-induced nitric oxide production after 24 hrs by Griess assay; format: functional, cell-based; conditions: BV-2, 24 h
HepG2 = experiment: Hepatoprotective activity against APAP-induced cell injury in human HepG2 cells assessed as survival rate at 10 uM after 48 hrs by MTT assay relative to control; format: functional; conditions: HepG2, 48 h, read-out: Survival

CC1=CC(=O)C=C(CO)[C@@]12CC[C@@H](C(C)(C)O[C@@H]1O[C@H](CO)[C@@H](O)[C@H](O)[C@H]1O)C2
IC50 (BV-2): 11.4 µM

CC1=CC(=O)C=C(CO)[C@@]12CC[C@@H](C(C)(C)O[C@@H]1O[C@H](CO[C@@H]3OC[C@](O)(CO)[C@H]3O)[C@@H](O)[C@H](O)[C@H]1O)C2
viability at 10 µM (HepG2): 58.2%

COC(=O)c1cc(OC)c2c(c1-c1c(CO)cc(OC)c3c1OCO3)OCO2 [BICYCLOL]
viability at 10 µM (HepG2): 52.9%

COc1cc(/C=C/C(=O)CC(=O)/C=C/c2ccc(O)c(OC)c2)ccc1O [CURCUMIN]
IC50 (BV-2): 4.77 µM
